# Legend:
# Hela = assay: MTT antiproliferative assay, Hela; format: cell-based, human; settings: 48 h, MTT; for inhibition at 100 µM: read-out: % Growth Inhibition at 100 μM Hela
# Protocol: (§1) The antiproliferative activity of the title compounds against the panel of six different human cancer cell lines, viz. lung (A549), cervix (HeLa), liver (HepG-2), liver (BEL7402), colorectal (HCT116), and breast (MCF-7) cell lines, was evaluated using a standard MTT-based colorimetric assay. All cell lines were obtained from the Key Laboratory of Natural Resources and Functional Molecules of the Changbai Mountain (Yanbian University) and maintained in Dulbecco’s modified Eagle’s medium (DMEM) and RPMI Media 1640 (RPMI1640), supplemented with 10% foetal bovine serum (FBS) at 37 °C in a humidified atmosphere containing 5% CO2.
# (§2) Cells were plated in 96-well plates at appropriate densities to ensure exponential growth throughout the experimental period (9 × 10^3 cells per well), and then allowed to adhere for 24 h. Cells were then treated for 48 h with each compound. After 48 h of incubation, 10 μL of MTT solution were added to each well to a final concentration of 2 mg·mL^−1. Plates were then incubated for a further 4 h. After incubation, the MTT solution was removed and 150 μL of DMSO were added to each well for coloration. The plates were shaken vigorously for 10 min at room temperature to ensure complete solubilisation. The optometric density (OD) was read on a microplate reader (EL × 800, BioTek, Highland Park, Winooski, VT, USA) at 492 nm, and the data were subsequently analysed. The percentage of cell growth inhibition was calculated from the following equation:Inhibitory rate (%) = [1 − (ODtreated − ODblank)/(ODcontrol − ODblank)] × 100.
# (§3) To obtain the antiproliferative activity of compounds 2a–2w, the compounds were selected in the same way with four serial concentrations (1, 10, 50 and 100 μM) of those compounds. The optometric density (OD) reading was then used to calculate the IC50.
# MCF-7 = assay: MTT antiproliferative assay, MCF-7; format: cell-based, human; settings: 48 h, MTT; for inhibition at 100 µM: read-out: % Growth Inhibition at 100 μM MCF-7
# Protocol: as §1, §2, §3
# HCT116 = assay: MTT antiproliferative assay, HCT116; format: cell-based, human; settings: 48 h, MTT; for inhibition at 100 µM: read-out: % Growth Inhibition at 100 μM HCT116
# Protocol: as §1, §2, §3
# HepG-2 = assay: MTT antiproliferative assay, HepG-2; format: cell-based, human; settings: 48 h, MTT; for inhibition at 100 µM: read-out: % Growth Inhibition at 100 μM HepG-2
# Protocol: as §1, §2, §3
# BEL7402 = assay: MTT antiproliferative assay, BEL7402; format: cell-based, human; settings: 48 h, MTT; for inhibition at 100 µM: read-out: % Growth Inhibition at 100 μM BEL7402
# Protocol: as §1, §2, §3
# [1] = tested on: human normal liver (L02) cells; assay: MTT assay on normal cell line L02; format: cell-based; settings: 48 h, MTT; for % Growth Inhibition at 100 μM L02 / inhibition at 100 µM: normal cells; for IC50: normal cell line; for inhibition at 100 µM: read-out: % Growth Inhibition at 100 μM L02
# A549 = assay: MTT antiproliferative assay, A549; format: cell-based, human; settings: 48 h, MTT; for inhibition at 100 µM: read-out: % Growth Inhibition at 100 μM A549
# Protocol: as §1, §2, §3
Compound,% Growth Inhibition at 100 μM Hela (Hela),% Growth Inhibition at 100 μM MCF-7 (MCF-7),% Growth Inhibition at 100 μM HCT116 (HCT116),% Growth Inhibition at 100 μM HepG-2 (HepG-2),% Growth Inhibition at 100 μM BEL7402 (BEL7402),% Growth Inhibition at 100 μM L02 [1],% Growth Inhibition at 100 μM A549 (A549),further results
"CC12CCC3C(CC=C4CC(O)CCC43C)C1C/C(=C\c1cn(-c3ccccc3Br)nn1)C2=O (stereo not shown) [Compound 2i, (E)-16-((1-(2-bromophenyl)-1H-1,2,3-triazol-4-yl)methylene)-3-hydroxy-10,13-dimethyl-1,3,4,7,8,9,10,11,12,13,15,16-dodecahydro-2H-cyclopenta[a]phenan-thren-17(14H)-one]",17.0%,NA (NA: antiproliferative activity <5%),20.2%,NA (NA: antiproliferative activity <5%),NA (NA: antiproliferative activity <5%),NA (NA: antiproliferative activity <5%),NA (NA: antiproliferative activity <5%),–
"COc1cccc(-n2cc(/C=C3\CC4C5CC=C6CC(O)CCC6(C)C5CCC4(C)C3=O)nn2)c1 (stereo not shown) [Compound 2r, (E)-3-hydroxy-16-((1-(3-methoxyphenyl)-1H-1,2,3-triazol-4-yl)methylene)-10,13-dimethyl-1,3,4,7,8,9,10,11,12,13,15,16-dodecahydro-2H-cyclopenta[a]phenan-thren-17(14H)-one]",NA (NA: antiproliferative activity <5%),NA (NA: antiproliferative activity <5%),NA (NA: antiproliferative activity <5%),NA (NA: antiproliferative activity <5%),NA (NA: antiproliferative activity <5%),16.9%,NA (NA: antiproliferative activity <5%),–
"CC12CCC3C(CC=C4CC(O)CCC43C)C1C/C(=C\c1cn(-c3ccc(Cl)c(Cl)c3)nn1)C2=O (stereo not shown) [Compound 2h, (E)-16-((1-(3,4-dichlorophenyl)-1H-1,2,3-triazol-4-yl)methylene)-3-hydroxy-10,13-dimethyl-1,3,4,7,8,9,10,11,12,13,15,16-dodecahydro-2H-cyclopenta[a]phenan-thren-17(14H)-one]",68.7%,80.0%,74.4%,48.2%,70.1%,67.9%,70.7%,IC50 (Hela): 15.1 µM; IC50 (MCF-7): 14.9 µM; IC50 (HCT116): 11.9 µM; IC50 (HepG-2): > 100 µM; IC50 (BEL7402): 16 µM; IC50 [1]: 26.4 µM; IC50 (A549): 17.5 µM
"Cc1ccc(-n2cc(/C=C3\CC4C5CC=C6CC(O)CCC6(C)C5CCC4(C)C3=O)nn2)cc1 (stereo not shown) [Compound 2p, (E)-3-hydroxy-10,13-dimethyl-16-((1-p-tolyl-1H-1,2,3-triazol-4-yl)methylene)-1,3,4,7,8,9,10,11,12,13,15,16-dodecahydro-2H-cyclopenta[a]phenanthren-17(14H)-one]",–,–,–,–,–,–,–,"IC50 (Hela; Homo sapiens, HeLa): 62.4 µM; inhibition at 100 µM (Hela; Homo sapiens): 64.6%; inhibition at 100 µM (MCF-7; Homo sapiens, MCF7): 21.7%; IC50 (MCF-7; Homo sapiens, MCF7): > 100 µM; inhibition at 100 µM (HCT116; Homo sapiens, HCT-116): 76.5%; IC50 (HCT116; Homo sapiens, HCT-116): 44.1 µM; inhibition at 100 µM (HepG-2; Homo sapiens, HepG2): 76%; IC50 (HepG-2; Homo sapiens, HepG2): 18.9 µM; inhibition at 100 µM (BEL7402; Homo sapiens, Bel-7402): 23.7%; IC50 (BEL7402; Homo sapiens, Bel-7402): > 100 µM; inhibition at 100 µM ([1]; Homo sapiens, L02): 67.1%; IC50 ([1]; Homo sapiens, L02): 62.2 µM; inhibition at 100 µM (A549; Homo sapiens, A549): 63.1%; IC50 (A549; Homo sapiens, A549): 56.7 µM"
"Cc1cccc(-n2cc(/C=C3\CC4C5CC=C6CC(O)CCC6(C)C5CCC4(C)C3=O)nn2)c1 (stereo not shown) [Compound 2o, (E)-3-hydroxy-10,13-dimethyl-16-((1-m-tolyl-1H-1,2,3-triazol-4-yl)methylene)-1,3,4,7,8,9,10,11,12,13,15,16-dodecahydro-2H-cyclopenta[a]phenanthren-17(14H)-one]",–,–,–,–,–,–,–,"inhibition at 100 µM (Hela; Homo sapiens): 12.7%; inhibition at 100 µM (MCF-7; Homo sapiens, MCF7): 11.2%; inhibition at 100 µM (HCT116; Homo sapiens, HCT-116): 40.9%; inhibition at 100 µM (HepG-2; Homo sapiens, HepG2): 12.8%; inhibition at 100 µM (BEL7402; Homo sapiens, Bel-7402): 30.5%; inhibition at 100 µM ([1]; Homo sapiens, L02): 40.1%; inhibition at 100 µM (A549; Homo sapiens, A549): < 5%"
"CC12CCC3C(CC=C4CC(O)CCC43C)C1C/C(=C\c1cn(-c3ccc([N+](=O)[O-])cc3)nn1)C2=O (stereo not drawn) [Compound 2v, (E)-3-hydroxy-10,13-dimethyl-16-((1-(4-nitrophenyl)-1H-1,2,3-triazol-4-yl)methylene)1,3,4,7,8,9,10,11,12,13,15,16-dodecahydro-2H-cyclopenta[α]phenan-thren-17(14H)-one]",NA (NA: antiproliferative activity <5%),NA (NA: antiproliferative activity <5%),10.2%,12.4%,13.2%,5.5%,NA (NA: antiproliferative activity <5%),–
"CC12CCC3C(CC=C4CC(O)CCC43C)C1C/C(=C\c1cn(-c3ccc(C(F)(F)F)cc3)nn1)C2=O (stereo not drawn) [Compound 2w, (E)-3-hydroxy-10,13-dimethyl-16-((1-(4-(trifluoromethyl)phenyl)-1H-1,2,3-triazol4-y)methylene)-1,3,4,7,8,9,10,11,12,13,15,16-dodecahydro-2H-cyclopenta[α] phenanthren-17(14H)-one]",44.1%,41.3%,75.0%,48.3%,62.2%,57.6%,75.2%,IC50 (Hela): > 100 µM; IC50 (MCF-7): > 100 µM; IC50 (HCT116): 22.7 µM; IC50 (HepG-2): > 100 µM; IC50 (BEL7402): 94 µM; IC50 [1]: 93.7 µM; IC50 (A549): 72.5 µM
"CC12CCC3C(CC=C4CC(O)CCC43C)C1C/C(=C\c1cn(-c3cccc(Br)c3)nn1)C2=O (stereo not shown) [Compound 2j, (E)-16-((1-(3-bromophenyl)-1H-1,2,3-triazol-4-yl)methylene)-3-hydroxy-10,13-dimethyl-1,3,4,7,8,9,10,11,12,13,15,16-dodecahydro-2H-cyclopenta[a]phenan-thren-17(14H)-one]",20.5%,42.1%,42.0%,10.8%,37.6%,43.8%,NA (NA: antiproliferative activity <5%),–
"COc1ccccc1-n1cc(/C=C2\CC3C4CC=C5CC(O)CCC5(C)C4CCC3(C)C2=O)nn1 (stereo not shown) [Compound 2q, (E)-3-hydroxy-16-((1-(2-methoxyphenyl)-1H-1,2,3-triazol-4-yl)methylene)-10,13-dimethyl-1,3,4,7,8,9,10,11,12,13,15,16-dodecahydro-2H-cyclopenta[a]phenan-thren-17(14H)-one]",NA (NA: antiproliferative activity <5%),34.6%,14.3%,NA (NA: antiproliferative activity <5%),10.0%,NA (NA: antiproliferative activity <5%),7.6%,–
"O=c1[nH]cc(F)c(=O)[nH]1 [Compound 5-FU, 5-fluorouracil, reference compound]",–,–,–,–,–,–,–,"IC50 (MCF-7; Homo sapiens, MCF7): 28.1 µM; IC50 (HCT116; Homo sapiens, HCT-116): 24.8 µM; IC50 (HepG-2; Homo sapiens, HepG2): 10.6 µM; IC50 (BEL7402; Homo sapiens, Bel-7402): 21.3 µM"

# From article PMC6225165, “Design and Synthesis of Novel Dehydroepiandrosterone Analogues as Potent Antiproliferative Agents” (Molecules : A Journal of Synthetic Chemistry and Natural …, 2018)
